Measured values reported in patent publication US20040191842A1, “Chemopreventive and therapeutic aspects of polyphenolic compositions and assays” (Medical College of Georgia Research Institute, Inc., priority 2002, published 2004).

Assays:
Assay type in all cases: cell-based, human
[1] = test system: NHEK; experiment: MTT assay (SDH activity), NHEK; conditions: EGCG at various concentrations or 0.2 mg/ml GTP, 24 h
Excerpt: Succinate dehydrogenase activity assay (MTT assay).

[2] = test system: caspase 3; experiment: Caspase 3 activity assay, MCF7(C) caspase 3+ cells; conditions: increasing EGCG or 0.2 mg/ml GTPPs, 24 h
Protocol: (§1) Caspase 3 activity assay. The Caspase 3 Apoptosis Detection Kit was purchased from Santa Cruz Biotech. Inc. In a 24 well tissue culture plate, 10^5 cells/well of cells in triplicates were plated. […] To each well, 100 μl of 2×reaction buffer was added with […]. Finally, 5 μl of DEVD-AFC substrate was added to each well containing cell lysates. The reaction mixtures were incubated for 1 hour at 37° C. The caspase 3 activity in each well was measured using a fluorescence microplate reader set for 405 nm excitation and 505 nm emission.

[3] = test system: caspase 3; experiment: Caspase 3 activity assay, caspase 3 null MCF7 cells; conditions: increasing EGCG or 0.2 mg/ml GTPPs, 24 h
Protocol: as §1

[4] = test system: NHEK; experiment: Light microscopy of NHEK grown alone; conditions: 100 μM EGCG, 24 hour
[5] = test system: p57; experiment: Western blot of p57 in mammary epithelial cells; conditions: EGCG 15 to 200 μM, 24 h
Protocol: Western blot analysis. The keratinocytes and the mammary epithelial cells were placed in KGM-2 and MEGM, respectively, overnight prior to treatment. Cells were lysed, after 24-hour treatment, in RIPA buffer (1% NP-40, 1% sodium deoxycholate, 0.1% SDS, 0.15 M NaCl, 0.01 M sodium phosphate, pH 7.2, and 1% Trasylol) containing proteinase inhibitors (1 mM PMSF, 1 μg/ml each of aprotinin, leupeptin, and pepstatin). The concentration of protein in each sample was determined using the BioRad DC Protein Assay and spectrophotometry. 50 μg of protein from each sample and a BioRad molecular weight standard marker were run on a 10% SDS-PAGE, followed by transfer to nitrocellulose membranes. Nonspecific binding to the membranes was blocked with 10% nonfat milk. Primary polyclonal (rabbit) antibodies and a horseradish peroxidase-conjugated goat anti-rabbit secondary antibody were used in conjunction with the ECL Chemiluminescence Kit (Amersham Pharmacia Biotech, New Jersey) and membranes were exposed to radiographic films for detection. Western blots were digitized for comparison of the intensity for each band using the ImageTool image analysis software program (University of Texas Health Science Center, San Antonio, Tex.). The integrated density of each band was measured using identical 1480 pixel areas of each Apfa-1 or Actin band at a scale of densities from 0 to 255. […]

[6] = test system: MCF7 cells; experiment: BrdU incorporation assay, MCF7 cells; conditions: increasing EGCG
Protocol: DNA synthesis analysis using BrdU incorporation method. The BrdU cell proliferation kit was purchased from Oncogene Research Products, Boston, Mass. Cells were culture in 96 well plates with 10^4 cells/well. After EGCG and GTPPs treatments, cells were labeled by BrdU, reacted with BrdU antibody and the color reaction was carried out according to the protocol provided by the manufacturer. The coloration was measure by a Thermo MAX microplate reader using wavelengths 450 nm-562 nm.

[7] = test system: caspase 14; experiment: Apoptosis macroarray, caspase 14 mRNA in NHEK
Protocol: To identify additional factors those suppress EGCG -induced apoptosis and facilitate cell differentiation in NHEK, exponentially growing NHEK (Cambrex, Baltimore, Md.) were exposed to 100 μM EGCG for 0, 2, 6 and 24 hours, prior to total RNA isolation using the Qiagen RNeasy mini kit (Valencia, Calif.), which was followed by RT-PCR labeling and hybridization with the Human Apoptosis Macroarray membrane (Sigma-Genosys, The Woodlands, Tex.). Total cell lysates also were collected following a variety of EGCG treatments. The protein levels for caspase 14 and p21 were determined by immuno-blotting using antibodies specific for caspase 14 and p21 (Santa Cruz Biotechnology, Santa Cruz, Calif.).
Normal human epidermal keratinocytes (NHEK; Cambrex), and oral squamous cell carcinoma (OSC2) cells, originally from gingival tissue, were compared. Exponentially growing cells were exposed to 50 or 100 μM EGCG for 0 hours, 2 hours, 6 hours or 24 hours. Cells were harvested for total RNA, which was examined by apoptosis macroarrays (Sigma Genosys), followed by phosphorimagery and data analysis (GeneSpring). Protein production of expressed genes was confirmed by Western blotting of whole cell lysates.

[8] = test system: p57 (KIP2); experiment: Western blot of p57 in OSC2 oral carcinoma cells
Protocol: Cell treatments. For 24 hours treatments, exponentially growing cells with 40% confluency (to minimize differentiation and spontaneous apoptosis) were either maintained in 50 μM EGCG (2.29 mg/100 ml) or 0.2 mg/ml of GTPPs in tissue culture flasks (25 cm^2). Control flasks contained cells without any treatment. To test whether BaP or NNK interfere with the induction of p57, the human keratinocytes were treated with 0.12 μM BaP, or 10 μM NNK, either alone or in combination with 50 μM EGCG. To examine the time course of p57 induction, cells were treated with 50 μM EGCG and harvested for Western analysis at 30 minutes, 2 hours, 6 hours, and 24 hours. The human keratinocytes were treated when the cell density reached 85-90% confluency (to mimic the epithelium).
In a parallel series of experiments, treatment with EGCG was performed with 30 micrograms per milliliter (μg/ml) cycloheximide added to the keratinocyte media 30 minutes prior to the addition of EGCG. The dose-response experiments were performed using EGCG concentrations at 30, 50 100, and 200 μM in the culture media for 24 hours.
Western blot analysis. […] The concentration of protein in each sample was determined using the BioRad DC Protein Assay and spectrophotometry. […]

[9] = test system: NS-SV-AC cells; experiment: Mitochondrial SDH activity in immortalized salivary glandular cells; conditions: NS-SV-AC and two other immortalized salivary glandular cell lines
Protocol: MTT [3-(4,5-dimethylthiazol-2-yl)-2,5-diphenyl tetrazolium bromide] assay. […] Cells (1.5×10^4 cells/well) were seeded in a 96-well microplate and treated with the indicated doses of EGCG for 24 hours. After the treatment, the cells in each well were washed with 200 μl of phosphate-buffered saline (PBS), incubated with 100 μl of 2% MTT in a solution of 0.05 M Tris, 0.5 mM MgCl2, 2.5 mM CoCl2, and 0.25 M disodiumn succinate as substrate (Sigma) at 37° C. for 30 minutes. Cells were fixed in situ by the addition of 100 μl of 4% formalin in 0.2 M Tris (pH 7.7), and after a 5 minute incubation at room temperature liquid was removed and the wells were allowed to dry. Each well was rinsed with 200 μl water and cells were solubilized by the addition of 100 μl of 6.35% 0.1 N NaOH in DMSO. The colored formazan product was measured by a Thermo MAX micro plate reader (Molecular Devices Corp., Sunnyvale, Calif.) at a wavelength of 562 nm. Experiments were repeated three times with triplicate samples for each experiment.

O=C(O[C@@H]1Cc2c(O)cc(O)cc2O[C@@H]1c1cc(O)c(O)c(O)c1)c1cc(O)c(O)c(O)c1 [EGCG, (−)-epigallocatechin-3-gallate]
SDH activity (MTT assay) [1]: not significantly affected | caspase 3 activation [2]: demonstrated activated caspase 3 | caspase 3 activity [3]: did not show caspase 3 activity | cell death [4]: showed no cell death | p57 levels [5]: no significant changes | BrdU incorporation [6]: able in incorporate BrdU efficiently | caspase 14 gene expression upregulated ([7]; 100 μM EGCG (Example 10)): at least 2 fold | caspase 14 mRNA expression above control ([7]; 100 μM EGCG, 24 hours): approximately three | p57 levels ([8]; 50 μM EGCG or 0.2 mg/ml GTPPs, 24 h): remained unchanged | p57 expression, time course and dose response ([8]; EGCG at any time point or concentration): failed to elevate p57 expression | tolerance, mitochondrial SDH activity [9]: tolerant to high concentrations of EGCG
